The text below walks through data of patent US10357438B2, “Metal salt compositions” (Colgate-Palmolive Company, priority 2014, dated 2019).

This data set relates to five species, planktonic mix of representative oral species (Actinomyces viscosus, Lactobacillus casei, Streptococcus oralis, Fusobacterium nucleatum, and …). Description: Resazurin bacterial inhibition assay. The data set is classed as cell-based. To be noted: 1% elemental Zn final concentration; 1 h incubation; resazurin fluorescence. The text has this: The antibacterial activity of the Zn2CitCl (dizinc citrate chloride) complex was compared against zinc citrate (ZnCit) using the resazurin bacterial inhibition assay. In order to test this hypothesis, we used an assay we have developed based on the metabolic indicator dye resazurin. […] A five species, planktonic mix of representative oral species is used in this assay (Actinomyces viscosus, Lactobacillus casei, Streptococcus oralis, Fusobacterium nucleatum, and Veillonella parvula). Bacteria are incubated with the test solution for 1 h prior to staining with 50 μg/ml of resazurin solution. When viable, metabolically active bacteria are incubated with resazurin, the blue, non-fluorescent dye is reduced by the bacteria to the pink fluorescent dye resrufin. Fluorescence of test samples are read at 560 nm excitation/590 nm emission and compared to the fluorescence of standard mixes of live and dead bacteria to determine the percentage of the initial population that remained viable following treatment. Samples were tested at a final concentration of 1% elemental Zn for each compound indicated.
A general note: Alamar Blue is a resazurin reagent that responds to reducing activity.

For basic sodium dizinc citrate chloride, the “% viability” value was found to be 3.3%.

On to basic sodium zinc citrate, for which the “% viability” value was 7.0%.

For sodium zinc citrate, the “% viability” value turned out to be 5.9%.
